“Also recorded” adds a separate entry of the source. No end group written: not given here.

Data on two substances can be found in patent publication US5017557A, “Treatment of infertility with somatotrophin releasing factor” (Industria Farmaceutica Serono S.p.A., priority 1987, dated 1991).

For one assay, the system named is Sertoli cells. The experiment in a line: GRF binding to isolated Sertoli cells. More on the design: species or system rat. An excerpt: Sertoli cells were isolated from the testicles of 14 day old rats, according to the techniques already decribed (A. Fabbri, et al.--Opiate receptors are present in the rat testis: Identification and localization on Sertoli cells. Endocrinology 117: 2544-2546, 1985). Briefly, the procedure consisted in the separation of the tubular compartment from the Leydig cells by means of enzymatic dispersion with collagenase and subsequent treatment of the tubules with trypsin and collagenase. The separated cells were applied to 48 well Costar plates at the concentration of approximately 100,000 cells per well. The cells were allowed to adhere to the bottom of the wells for 24 hours in a metabolic incubator at 34° C., in 95% O2 /5% CO2. The cells were then washed and incubated in TC 199 10 mM TRIS medium in the presence of iodine labelled GRF-44 at the concentration of 10^-11 M for 60 minutes at 4° C. in the presence or absence of 10^-6 M cold (unlabelled) human GRF-44. Then the cells were washed 3 times with PBS+0.5% BSA at 4° C.; the radio-activity bound to the cells was then solubilized with 0.1N NaOH and read in a gammacounter.

Assay [1] has as its system serum levels of HGH, Sm-C, prolactin, LH, FSH. The settings on record: intravenous administration, normal subjects during the menstrual cycle; cited from earlier work.
The subject of assay [2] is follicle in maturative growth. Briefly: echographic monitoring of follicle-genesis (volume/diameter of the follicle in maturative growth) in women. The assay is classed as in vivo, human (women). On the procedure:
In the clinical trials reported below, GRF-29 was used in the form of lyophilized ampoules containing 100 or 150 micrograms (mcg) of GRF and 10 milligrams (mg) of mannitol as excipient. The lyophilized substance, dissolved in 2 ml of physiologic saline, was administered by the intravenous route.
In a clinical study carried out in conformity with the present invention women, both with normal follicle-genesis (as control) and follicle-genesisdeficiency were treated.
The study consisted in echographic and hormonal monitoring of follicle-genesis during which the volume of the follicle in maturative growth and the plasma levels of 17-beta estradiol and 17-alpha OH progesterone were recorded.
In the controls with normal follicle-genesis, 2 monitorings of the follicle-genesis were carried out in accordance with the above mentioned procedures: the first verified the basal situation and the second was under administration of GRF-29 at the dosage of 100 or 150 mcg/day i.v. from the 1st to the 7th day of the cycle.
In patients with follicle-genesis deficiency, monitorings of the follicle-genesis were carried out: without any medicinal administration (as control); under administration of GRF-29 at the dosage of 100 or 150 mcg/day i.v. from the 1st to the 7th day of the cycle; under administration of FSH (METRODIN® at the dosage of 75 or 150 I.U./day i.m. for 7 days; under the combined administration of FSH+GRF at the above dosage.

The next assay concerns spermatozoa. The experiment in a line: treatment of male infertility: seminal parameters. Type of assay: in vivo, human (patients). The settings on record: oligospermia or azoospermia; 5 mcg/kg s.c. 3 times a week for three months; controls at 45 days and 3 months. On the procedure: Patients suffering spermatogenesis deficiences of various entity with oligospermia or azoospermia, selected according to the criteria of the protocol, were treated for a period of three months with GRF-29 at the dosage of 5 mcg/kg s.c. 3 times a week.
The first control was carried out after 45 days from commencement of therapy, and the second control after 3 months.

The subject of assay [3] is anti-GRF obtained in the rabbit (Amersham) against human GRF-44. The following applies: rabbit anti-serum against human GRF-44 (Amersham); cited from earlier work.

With “GRF: Somatotrophin releasing factor; measured as immunoreactivity by RIA, binding done with iodine labelled human GRF-44”, the “specific binding of GRF to Sertoli cells” value in the assay with Sertoli cells (iodine labelled GRF-44 10^-11 M, 60 minutes at 4° C., with or without 10^-6 M cold human GRF-44) is on record as 2.5 fmoles of peptide/70 mcg of protein; in the assay on Sertoli cells (recalculated per mg of protein), “about 40 fmoles/mg of protein”. The “effect on serum hormone levels” value in assay [1] was “produces an increase in serum levels of HGH and Sm-C but not of prolactin, LH or FSH”.
Take “GRF-29: biologically active fragment of Somatotrophin releasing factor; lyophilized ampoules of 100 or 150 mcg with 10 mg mannitol (YADAIFTNSYRKVLGQLSARKLLQDIMSR; ends and bridges not checked; UniProt P01286 32-60, looked up, fragment)”: the “observation of the cycle (follicular activation, dominance, ovulation, menstrual flow)” value is “presence of follicular activation and evidence of a dominant follicle between the 13th and the 14th day of the cycle, with ovulation between the 15th and 16th day” in assay [2] (Case 1, normal follicle-genesis, GRF-29 100 mcg/day i.v.); “presence of follicular activation, dominance and dehiscence” in assay [2] (Case 3, patient, GRF-29 150 mcg/day i.v.); “absence of ovulation but follicle-genesis was activated; also recorded: Menstrual flow occurred spontaneously on the 33rd day” in assay [2] (Case 4, patient, GRF-29 100 mcg/day i.v.); “good ovarian activation was observed, followed by the growth of two follicles (within a micropolycistic ovary, as stated above), which presented an involution around the 17th day of the cycle” in assay [2] (Case 6, patient, GRF-29 150 mcg/day i.v. day 1-7); “presence of echographic notes of ovarian activation, but absence of follicular dominance” in assay [2] (Case 7, patient, GRF-29 150 mcg/day i.v. day 1-7). Also, in assay [2] (administration during the first phase of the cycle, all cases), the “overall effect on follicle growth and ovulation” value is “facilitates follicle growth and anticipates, or even induces, ovulation (dehiscence)”. In the assay on spermatozoa, the “seminal parameters (number of spermatozoa, motility)” value is “improvement of the seminal parameters, and especially an increase in the number of spermatozoa and their motility”. Further, in assay [3], the Cross-reactivity is 100%.
